# Source: PubChem BioAssay (NCI)
#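 48-hour exposure; five concentrations; linearly interpolated endpoints. GI50 = concentration required for 50% inhibition of growth. TGI is the concentration that stops growth completely.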 Where a SMILES comes first, the peptide text is derived from it. [ ]: non-standard residue; d: D form. The star is where a group is joined. ξ: configuration not given here. ξNMe2Val = CC(C)C(C(=O)*)N(C)C; NMeV = CN[CH](C(=O)O)C(C)C; NHBn = c1ccc(CN*)cc1
# Legend:
# Assay in all cases: NCI tumour cell line growth inhibition, 48 h
# [1] = test system: 786-0 renal
# [2] = test system: A549 NSCLC
# [3] = test system: ACHN renal
# [4] = test system: BT-549 breast
# [5] = test system: CAKI-1 renal
# [6] = test system: CCRF-CEM leukemia
# [7] = test system: COLO 205 colon
# [8] = test system: DU-145 prostate
# [9] = test system: EKVX NSCLC
# [10] = test system: HL-60(TB) leukemia
# [11] = test system: HOP-62 NSCLC
# [12] = test system: IGROV1 ovarian
# [13] = test system: KM12 colon
# [14] = test system: LOX IMVI melanoma
# [15] = test system: MALME-3M melanoma
# [16] = test system: MDA-MB-231 breast
# [17] = test system: MDA-N
# [18] = test system: NCI-H23 lung
# [19] = test system: NCI-H460 lung
# [20] = test system: NCI-H522 lung
# [21] = test system: NCI/ADR-RES ovarian
# [22] = test system: OVCAR-4 ovarian
# [23] = test system: OVCAR-5 ovarian
# [24] = test system: RPMI-8226 leukemia
# [25] = test system: RXF 393 renal
# [26] = test system: SF-268 CNS
# [27] = test system: SK-MEL-5 melanoma
# [28] = test system: SK-OV-3 ovarian
# [29] = test system: SNB-19 CNS
# [30] = test system: SNB-75 CNS
# [31] = test system: SW-620 colon
# [32] = test system: U251 CNS
# [33] = test system: UACC-62 melanoma
# [34] = test system: UO-31 renal
# [35] = test system: A498 renal
# [36] = test system: HCC-2998 colon
# [37] = test system: HCT-116 colon
# [38] = test system: HCT-15 colon
# [39] = test system: HS 578T breast
# [40] = test system: K-562 leukemia
# [41] = test system: M14 melanoma
# [42] = test system: MCF7 breast
# [43] = test system: MDA-MB-435
# [44] = test system: MOLT-4 leukemia
# [45] = test system: NCI-H226 lung
# [46] = test system: OVCAR-8 ovarian
# [47] = test system: PC-3 prostate
# [48] = test system: SF-295 CNS
# [49] = test system: SF-539 CNS
# [50] = test system: SK-MEL-2 melanoma
# [51] = test system: SK-MEL-28 melanoma
# [52] = test system: SN12C renal
# [53] = test system: T-47D breast
# [54] = test system: TK-10 renal
# [55] = test system: UACC-257 melanoma
# [56] = test system: HT29 colon
# [57] = test system: OVCAR-3 ovarian
# [58] = test system: HOP-92 NSCLC
smiles,measurement,setting,value
CC(C)C(NC(=O)C(C(C)C)N(C)C)C(=O)N(C)C(C(=O)N1CCCC1C(=O)N1CCCC1C(=O)NCc1ccccc1)C(C)C (stereo not drawn) (ξNMe2Val-V[NMeV]PP-NHBn; configuration not given here),TGI,[1],> 100 µM
same,TGI,[2],> 100 µM
same,TGI,[3],> 100 µM
same,TGI,[4],0.0788 µM
same,TGI,[5],> 100 µM
same,TGI,[6],0.00144 µM
same,TGI,[7],0.00016 µM
same,TGI,[8],0.0117 µM
same,GI50,[9],< 0.0001 µM
same,TGI,[9],> 100 µM
same,TGI,[10],< 0.0001 µM
same,TGI,[11],> 100 µM
same,TGI,[12],> 100 µM
same,TGI,[13],< 0.0001 µM
same,TGI,[14],0.000253 µM
same,TGI,[15],> 100 µM
same,TGI,[16],0.000242 µM
same,TGI,[17],< 0.0001 µM
same,TGI,[18],> 100 µM
same,TGI,[19],0.0227 µM
same,TGI,[20],0.418 µM
same,GI50,[21],0.264 µM
same,TGI,[21],7.39 µM
same,TGI,[22],> 100 µM
same,TGI,[23],0.206 µM
same,TGI,[24],> 100 µM
same,TGI,[25],> 100 µM
same,TGI,[26],> 100 µM
same,TGI,[27],0.000265 µM
same,TGI,[28],> 100 µM
same,TGI,[29],> 100 µM
same,TGI,[30],53.8 µM
same,TGI,[31],> 100 µM
same,TGI,[32],3.11 µM
same,TGI,[33],0.0105 µM
same,TGI,[34],> 100 µM
CC(=O)OC[C@H]1CN(OC(C)=O)C[C@@H](n2cc(C)c(=O)[nH]c2=O)O1,TGI,[1],> 100 µM
same,TGI,[35],> 100 µM
same,TGI,[2],> 100 µM
same,TGI,[3],> 100 µM
same,TGI,[4],> 100 µM
same,TGI,[5],> 100 µM
same,TGI,[7],> 100 µM
same,TGI,[8],> 100 µM
same,TGI,[9],> 100 µM
same,TGI,[36],> 100 µM
same,TGI,[37],> 100 µM
same,TGI,[38],> 100 µM
same,TGI,[10],> 100 µM
same,TGI,[11],> 100 µM
same,TGI,[39],> 100 µM
same,TGI,[12],> 100 µM
same,TGI,[40],> 100 µM
same,TGI,[13],> 100 µM
same,TGI,[41],> 100 µM
same,TGI,[42],> 100 µM
same,TGI,[16],> 100 µM
same,TGI,[43],> 100 µM
same,TGI,[17],> 100 µM
same,TGI,[44],> 100 µM
same,TGI,[45],> 100 µM
same,TGI,[19],> 100 µM
same,TGI,[22],> 100 µM
same,TGI,[23],> 100 µM
same,TGI,[46],> 100 µM
same,TGI,[47],> 100 µM
same,TGI,[24],> 100 µM
same,TGI,[25],> 100 µM
same,TGI,[26],> 100 µM
same,TGI,[48],> 100 µM
same,TGI,[49],> 100 µM
same,TGI,[50],> 100 µM
same,TGI,[51],> 100 µM
same,TGI,[27],> 100 µM
same,TGI,[28],> 100 µM
same,TGI,[52],> 100 µM
same,TGI,[29],> 100 µM
same,TGI,[30],> 100 µM
same,TGI,[31],> 100 µM
same,TGI,[53],> 100 µM
same,TGI,[54],> 100 µM
same,TGI,[32],> 100 µM
same,TGI,[55],> 100 µM
same,TGI,[33],> 100 µM
same,TGI,[34],> 100 µM
COc1cccc(/C=N/n2c(Cc3ccccc3)n[nH]c2=O)c1,TGI,[1],> 100 µM
same,TGI,[35],> 100 µM
same,TGI,[2],> 100 µM
same,TGI,[3],> 100 µM
same,TGI,[4],> 100 µM
same,TGI,[5],> 100 µM
same,TGI,[6],> 100 µM
same,TGI,[7],> 100 µM
same,TGI,[8],> 100 µM
same,TGI,[9],> 100 µM
same,TGI,[36],> 100 µM
same,TGI,[37],> 100 µM
same,TGI,[38],> 100 µM
same,TGI,[11],> 100 µM
same,TGI,[39],50 µM
same,TGI,[56],> 100 µM
same,TGI,[40],> 100 µM
same,TGI,[13],> 100 µM
same,TGI,[14],> 100 µM
same,TGI,[41],> 100 µM
same,TGI,[15],> 100 µM
same,TGI,[42],> 100 µM
same,TGI,[16],> 100 µM
same,TGI,[43],> 100 µM
same,TGI,[17],> 100 µM
same,TGI,[44],> 100 µM
same,TGI,[45],> 25.6 µM
same,TGI,[18],> 100 µM
same,TGI,[19],> 100 µM
same,TGI,[20],> 100 µM
same,TGI,[21],> 100 µM
same,TGI,[57],> 100 µM
same,TGI,[22],> 100 µM
same,TGI,[23],> 100 µM
same,TGI,[46],> 100 µM
same,TGI,[47],> 100 µM
same,TGI,[24],> 100 µM
same,TGI,[25],> 100 µM
same,TGI,[26],> 100 µM
same,TGI,[48],> 100 µM
same,TGI,[49],> 100 µM
same,TGI,[50],> 100 µM
same,TGI,[51],> 100 µM
same,TGI,[27],> 100 µM
same,TGI,[28],> 100 µM
same,TGI,[52],> 60.3 µM
same,TGI,[29],> 100 µM
same,TGI,[30],61.2 µM
same,TGI,[31],> 100 µM
same,TGI,[53],> 100 µM
same,TGI,[54],> 100 µM
same,TGI,[32],> 100 µM
same,TGI,[55],> 100 µM
same,TGI,[33],> 100 µM
same,TGI,[34],> 100 µM
C/C=C(\C)c1cc(=O)c2c(C)cc3c(c2o1)C(=O)c1c(O)c(C2CC(C)(N(C)C)C(OC(C)=O)C(C)O2)cc(C2CC(N(C)C)C(O)C(C)O2)c1C3=O (stereo not drawn),TGI,[1],5.68 µM
same,TGI,[35],11.1 µM
same,TGI,[2],> 50 µM
same,TGI,[3],10 µM
same,TGI,[4],3.42 µM
same,TGI,[5],5.1 µM
same,TGI,[6],> 50 µM
same,TGI,[7],3.05 µM
same,TGI,[8],> 50 µM
same,TGI,[9],5.38 µM
same,TGI,[36],2.32 µM
same,TGI,[37],6.33 µM
same,TGI,[38],12.2 µM
same,TGI,[10],> 50 µM
same,TGI,[11],6.45 µM
same,TGI,[58],30.9 µM
same,TGI,[39],18.6 µM
same,TGI,[56],6.75 µM
same,TGI,[12],6.01 µM
same,TGI,[40],> 50 µM
same,TGI,[13],6.49 µM
same,TGI,[14],6.91 µM
same,TGI,[41],1.85 µM
same,TGI,[15],1.13 µM
same,TGI,[42],7.85 µM
same,TGI,[16],5.96 µM
same,TGI,[43],3.45 µM
same,TGI,[17],4.83 µM
same,TGI,[44],> 15.2 µM
same,TGI,[45],5.57 µM
same,TGI,[18],> 11.9 µM
same,TGI,[19],5.94 µM
same,TGI,[20],1.16 µM
same,TGI,[21],9.16 µM
same,TGI,[57],> 21 µM
same,TGI,[22],10.2 µM
same,TGI,[23],15.5 µM
same,TGI,[46],> 17.5 µM
same,TGI,[47],7.83 µM
same,TGI,[24],> 50 µM
same,TGI,[25],1.27 µM
same,TGI,[26],9.56 µM
same,TGI,[48],> 16.9 µM
same,TGI,[49],2.59 µM
same,TGI,[50],2.87 µM
same,TGI,[51],8.41 µM
same,TGI,[27],1.59 µM
same,TGI,[28],> 50 µM
same,TGI,[52],8.81 µM
same,TGI,[29],10.9 µM
same,TGI,[30],7.33 µM
same,TGI,[31],> 27.7 µM
same,TGI,[53],38.2 µM
same,TGI,[54],> 30 µM
same,TGI,[32],> 50 µM
same,TGI,[55],6.47 µM
same,TGI,[33],3.97 µM
same,TGI,[34],7.87 µM
